Reference: patent US9815796B2 (Merck Sharp & Dohme Corp., priority 2013, dated 2017)
Where two headings read alike, the source gives them in different places.

How the values were obtained:
[1] = molecular target: human PDE2A1 (Homo sapiens (Human), UniProt O00408); experiment: IMAP FP PDE selectivity panel, human PDE2A1; format: biochemical
How it was run: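 IMAP FP format: substrate 50 nM FAM-cAMP plus 1000 nM cGMP, enzyme (insect-cell GST-tagged human PDE2A1) at ~20% conversion, 60 min reaction at room temperature. Apparent inhibition constants calculated from parallel/perpendicular fluorescence with KM 10,000 nM.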

[2] = molecular target: Rhesus PDE2A3 (Macaca mulatta, UniProt B3VTJ2); experiment: PDE2 fluorescence polarization (IMAP FP) inhibition assay, rhesus enzyme; format: biochemical, rhesus macaque
How it was run: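 IMAP FP (mP from parallel and perpendicular fluorescence against substrate-only control) was read ≥1 h after adding binding reagent. The preceding 60 min room-temperature reaction contained FAM-cAMP (50 nM) and cGMP (1 uM) in pH 7.2 Tris buffer with MgCl2 and DTT. Enzyme was supernatant of sonicated AD293 cells expressing rhesus PDE2A3; compounds were 3-fold titrated, DMSO 1% final.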

[3] = Human PDE2, Lab A, read-out: Human PDE2 Ki (nM) - Lab A
[4] = Human PDE2, Lab B, read-out: Human PDE2 Ki (nM) - Lab B
[5] = Rhesus PDE2, Lab A, read-out: Rhesus PDE2 Ki (nM) - Lab A
[6] = Rhesus PDE2, Lab B, read-out: Rhesus PDE2 Ki (nM) - Lab B

Sequence of human PDE2A1 (O00408 other isoform, or with tags, fused parts or gaps): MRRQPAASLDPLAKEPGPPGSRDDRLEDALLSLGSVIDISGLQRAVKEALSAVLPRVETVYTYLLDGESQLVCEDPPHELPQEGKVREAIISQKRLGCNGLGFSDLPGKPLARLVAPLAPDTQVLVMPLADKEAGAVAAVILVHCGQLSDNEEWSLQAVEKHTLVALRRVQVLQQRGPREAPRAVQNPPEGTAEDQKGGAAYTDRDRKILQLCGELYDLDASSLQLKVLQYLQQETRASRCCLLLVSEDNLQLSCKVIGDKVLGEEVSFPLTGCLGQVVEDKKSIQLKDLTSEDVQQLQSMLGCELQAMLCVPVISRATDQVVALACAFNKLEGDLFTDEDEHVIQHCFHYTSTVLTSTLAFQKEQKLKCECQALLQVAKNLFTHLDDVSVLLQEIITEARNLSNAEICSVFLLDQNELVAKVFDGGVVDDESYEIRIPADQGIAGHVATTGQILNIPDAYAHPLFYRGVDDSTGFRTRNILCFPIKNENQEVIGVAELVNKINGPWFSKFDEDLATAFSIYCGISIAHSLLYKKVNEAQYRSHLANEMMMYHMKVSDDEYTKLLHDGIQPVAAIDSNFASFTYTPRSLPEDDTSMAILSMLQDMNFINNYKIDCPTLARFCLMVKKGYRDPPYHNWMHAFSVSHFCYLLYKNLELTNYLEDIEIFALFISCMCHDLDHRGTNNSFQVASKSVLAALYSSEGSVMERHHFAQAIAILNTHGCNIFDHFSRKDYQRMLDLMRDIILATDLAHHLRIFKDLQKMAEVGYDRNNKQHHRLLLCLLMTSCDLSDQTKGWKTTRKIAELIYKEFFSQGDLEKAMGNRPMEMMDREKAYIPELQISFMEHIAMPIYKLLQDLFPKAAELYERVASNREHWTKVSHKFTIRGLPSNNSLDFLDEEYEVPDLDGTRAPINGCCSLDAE
Sequence of Rhesus PDE2A3 (B3VTJ2 1-941): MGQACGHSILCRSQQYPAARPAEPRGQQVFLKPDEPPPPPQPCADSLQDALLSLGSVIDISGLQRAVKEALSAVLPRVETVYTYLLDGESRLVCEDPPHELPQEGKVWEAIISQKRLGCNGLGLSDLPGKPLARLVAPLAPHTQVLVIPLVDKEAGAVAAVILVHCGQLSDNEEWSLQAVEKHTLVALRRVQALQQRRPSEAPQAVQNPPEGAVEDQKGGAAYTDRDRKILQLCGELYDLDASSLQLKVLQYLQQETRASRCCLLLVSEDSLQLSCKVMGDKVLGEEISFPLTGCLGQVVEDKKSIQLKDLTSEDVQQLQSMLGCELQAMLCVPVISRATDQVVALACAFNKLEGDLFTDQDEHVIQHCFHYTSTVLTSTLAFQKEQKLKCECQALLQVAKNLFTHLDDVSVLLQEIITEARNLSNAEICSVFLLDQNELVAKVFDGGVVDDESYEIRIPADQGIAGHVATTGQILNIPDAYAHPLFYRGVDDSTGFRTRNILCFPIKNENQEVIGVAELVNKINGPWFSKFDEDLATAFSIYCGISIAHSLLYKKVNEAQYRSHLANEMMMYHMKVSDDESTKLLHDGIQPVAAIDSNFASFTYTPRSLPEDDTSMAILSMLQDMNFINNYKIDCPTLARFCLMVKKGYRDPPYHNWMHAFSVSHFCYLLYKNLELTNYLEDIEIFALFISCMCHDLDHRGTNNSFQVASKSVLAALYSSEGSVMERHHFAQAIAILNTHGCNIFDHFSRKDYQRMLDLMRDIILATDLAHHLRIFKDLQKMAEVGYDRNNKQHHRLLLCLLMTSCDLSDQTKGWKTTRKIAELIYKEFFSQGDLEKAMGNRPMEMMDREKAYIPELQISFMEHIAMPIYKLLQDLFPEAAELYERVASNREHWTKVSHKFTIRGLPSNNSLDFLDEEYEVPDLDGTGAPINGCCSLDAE

| Structure (SMILES) | Ki [1, 3] [nM] | Ki [1, 4] [nM] | Ki [2, 5] [nM] | Ki [2, 6] [nM] |
| --- | --- | --- | --- | --- |
| Cc1nc(C(=O)NC2(c3ccc(C(F)(F)F)c(F)c3)CC2)cc(=O)[nH]1 [Example 44, N-{1-[3-fluoro-4-(trifluoromethyl)phenyl]cyclopropyl}-2-methyl-6-oxo-1,6-dihydropyrimidine-4-carboxamide] | 10 | 16 | 17 | 16 |
| CC[C@@H](NC(=O)c1cc(=O)[nH]c(-c2ncccn2)n1)c1ccc(C(F)(F)F)c(F)c1 [Example 264, N-{(1R)-1-[3-fluoro-4-(trifluoromethyl)phenyl]propyl}-6-oxo-1,6-dihydro-2,2′-bipyrimidine-4-carboxamide] | – | 7.7 | 4.6 | 7.9 |
| Cc1nc(C(=O)N[C@@H](c2ccc(C(F)(F)F)cc2)C(C)C)cc(=O)[nH]1 [Example 316, 2-methyl-N-{(1R)-2-methyl-1-[4-(trifluoromethyl)phenyl]propyl}-6-oxo-1,6-dihydropyrimidine-4-carboxamide] | 7.1 | – | 13 | – |
| C[C@@H](NC(=O)c1cc(=O)[nH]c(C2CC2)n1)c1cc(F)c(C(F)(F)F)cc1F [Example 440, 2-cyclopropyl-N-{(1R)-1-[2,5-difluoro-4-(trifluoromethyl)phenyl]ethyl}-6-oxo-1,6-dihydropyrimidine-4-carboxamide] | – | 60 | – | 51 |
| CC[C@@H](NC(=O)c1cc(=O)[nH]c(-c2ccccc2)n1)c1ccc(C(F)(F)F)c(F)c1 [Example 420, N-{(1R)-1-[3-fluoro-4-(trifluoromethyl)phenyl]propyl}-6-oxo-2-phenyl-1,6-dihydropyrimidine-4-carboxamide] | – | 5.9 | – | 7.3 |
| O=C(N[C@@H](c1ccc(OC(F)F)cc1)C1CC1)c1cc(=O)[nH]c(-c2ccccc2)n1 [Example 448, N-{(R)-cyclopropyl[4-(difluoromethoxy)phenyl]methyl}-6-oxo-2-phenyl-1,6-dihydropyrimidine-4-carboxamide] | – | 12 | – | 13 |
| Cc1nc(C(=O)N[C@H](C)c2ccc(CC(F)(F)F)cc2)cc(=O)[nH]1 [Example 45, 2-methyl-6-oxo-N-{(1R)-1-[4-(2,2,2-trifluoroethyl)phenyl]ethyl}-1,6-dihydropyrimidine-4-carboxamide] | 35 | – | 52 | – |
| CC[C@@H](NC(=O)c1cc(=O)[nH]c(C)n1)c1ccc(OC(F)(F)F)cc1 [Example 31, 2-methyl-6-oxo-N-{(1R)-1-[4-(trifluoromethoxy)phenyl]propyl}-1,6-dihydropyrimidine-4-carboxamide] | 15 | – | 28 | – |
| CC(C)(NC(=O)c1cc(=O)[nH]c(-c2ncccn2)n1)c1ccc(C(F)(F)F)cc1 [Example 288, N-{1-methyl-1-[4-(trifluoromethyl)phenyl]ethyl}-6-oxo-1,6-dihydro-2,2′-bipyrimidine-4-carboxamide] | 123 | – | 152 | – |
| O=C(N[C@@H](c1ccc(C(F)(F)F)cc1)C1CC1)c1cc(=O)[nH]c(C2CC2)n1 [Example 213, 2-cyclopropyl-N-{(R)-cyclopropyl[4-(trifluoromethyl)phenyl]methyl}-6-oxo-1,6-dihydropyrimidine-4-carboxamide] | 3.3 | – | 6.1 | – |
| C[C@@H](NC(=O)c1cc(=O)[nH]c(C2CC2)n1)c1ccc(CC(F)(F)F)cc1 [Example 217, 2-cyclopropyl-6-oxo-N-{(1R)-1-[4-(2,2,2-trifluoroethyl)phenyl]ethyl}-1,6-dihydropyrimidine-4-carboxamide] | 14 | – | 29 | – |
| O=C(NC1(c2ccc(SC(F)(F)F)c(F)c2)CC1)c1cc(=O)[nH]c(C2CC2)n1 [Example 252, 2-cyclopropyl-N-(1-{3-fluoro-4-[(trifluoromethyl)sulfanyl]phenyl}cyclopropyl)-6-oxo-1,6-dihydropyrimidine-4-carboxamide] | ~13 | 20 | 8.7 | 14 |
| CC(NC(=O)c1cc(=O)[nH]c(-c2ccccc2)n1)c1ccc(-n2cccn2)cc1 (centres unmarked) [Example 350, 6-oxo-2-phenyl-N-{1-[4-(1H-pyrazol-1-yl)phenyl]ethyl}-1,6-dihydropyrimidine-4-carboxamide] | – | 39 | 21 | – |
| O=C(NC1(c2ccc(C(F)(F)F)cc2)CCC1)c1cc(=O)[nH]c(-c2ncccn2)n1 [Example 286, 6-oxo-N-{1-[4-(trifluoromethyl)phenyl]cyclobutyl}-1,6-dihydro-2,2′-bipyrimidine-4-carboxamide] | 60 | – | 83 | – |

More lines, now with the values ahead:

| Ki [1, 3] [nM] | Ki [1, 4] [nM] | Ki [2, 5] [nM] | Ki [2, 6] [nM] | Structure (SMILES) |
| --- | --- | --- | --- | --- |
| 9.7 | – | 10 | – | Cc1cc([C@@H](C)NC(=O)c2cc(=O)[nH]c(-c3ccccc3)n2)ccc1C(F)(F)F [Example 189] |
| – | 4.9 | 3.7 | 4.7 | CC(C)(C)[C@@H](NC(=O)c1cc(=O)[nH]c(-c2ncccn2)n1)c1ccc(C(F)(F)F)cc1 [Example 255, N-{(1R)-2,2-dimethyl-1-[4-(trifluoromethyl)phenyl]propyl}-6-oxo-1,6-dihydro-2,2′-bipyrimidine-4-carboxamide] |
| – | 4 | – | 3.8 | CC1([C@@H](NC(=O)c2cc(=O)[nH]c(C3CC3)n2)c2ccc(S(F)(F)(F)(F)F)cc2)CC1 [Example 454, 2-cyclopropyl-N-{(R)-(1-methylcyclopropyl)[4-(pentafluoro-λ^6-sulfanyl)phenyl]methyl}-6-oxo-1,6-dihydropyrimidine-4-carboxamide] |
| – | 4 | – | 4.2 | Cc1nc(C(=O)N[C@@H](c2ccc(C(F)(F)F)cc2F)C(C)(C)C)cc(=O)[nH]1 [Example 617] |
| 33 | – | 55 | – | C[C@@H](NC(=O)c1cc(=O)[nH]c(Cc2cccnc2)n1)c1ccc(C(F)(F)F)cc1 [Example 6, 6-oxo-2-(pyridin-3-ylmethyl)-N-{(1R)-1-[4-(trifluoromethyl)phenyl]ethyl}-1,6-dihydropyrimidine-4-carboxamide] |
| 184 | – | 218 | – | Cc1nc(C(=O)NC2(c3ccc(SC(F)(F)F)c(F)c3)CCC2)cc(=O)[nH]1 [Example 129, N-(1-{3-fluoro-4-[(trifluoromethyl)sulfanyl]phenyl}cyclobutyl)-2-methyl-6-oxo-1,6-dihydropyrimidine-4-carboxamide] |
| – | 4.7 | 3.6 | 3.9 | C[C@@H](NC(=O)c1cc(=O)[nH]c(-c2ncccn2)n1)c1ccc(S(F)(F)(F)(F)F)cc1 [Example 111, 6-oxo-N-{(1R)-1-[4-(pentafluoro-λ^6-sulfanyl)phenyl]ethyl}-1,6-dihydro-2,2′-bipyrimidine-4-carboxamide] |
| – | 386 | 132 | 458 | O=C(N[C@@H](CC(F)(F)F)c1ccc(C(F)(F)F)cc1)c1cc(=O)[nH]c(-c2ccccc2)n1 [Example 366, 6-oxo-2-phenyl-N-{(1S)-3,3,3-trifluoro-1-[4-(trifluoromethyl)phenyl]propyl}-1,6-dihydropyrimidine-4-carboxamide] |
| 9.7 | – | 13 | – | O=C(NC(CO)c1ccc(C(F)(F)F)cc1)c1cc(=O)[nH]c(-c2ccccc2)n1 (centres unmarked) [Example 185, N-{2-hydroxy-1-[4-(trifluoromethyl)phenyl]ethyl}-6-oxo-2-phenyl-1,6-dihydropyrimidine-4-carboxamide] |
| – | 46 | – | 60 | COc1ccc(C(C)(C)c2nc(C(=O)N[C@@H](c3ccc(C(F)(F)F)c(F)c3)C(C)C)cc(=O)[nH]2)cc1 [Example 486, N-{(1R)-1-[3-fluoro-4-(trifluoromethyl)phenyl]-2-methylpropyl}-2-[1-(4-methoxyphenyl)-1-methylethyl]-6-oxo-1,6-dihydropyrimidine-4-carboxamide] |
| – | 2.5 | – | 2 | CC(C)c1ccc([C@H](NC(=O)c2cc(=O)[nH]c(C3CC3)n2)C2(C)CC2)cc1 [Example 444, 2-cyclopropyl-N-{(R)-(1-methylcyclopropyl)[4-(1-methylethyl)phenyl]methyl}-6-oxo-1,6-dihydropyrimidine-4-carboxamide] |
| 24 | – | 34 | – | C[C@@H](NC(=O)c1cc(=O)[nH]c(Cc2ccc(F)cc2)n1)c1ccc(C(F)(F)F)cc1 [Example 132, 2-(4-fluorobenzyl)-6-oxo-N-{(1R)-1-[4-(trifluoromethyl)phenyl]ethyl}-1,6-dihydropyrimidine-4-carboxamide] |
| 2.6 | – | 5.8 | – | CC[C@@H](NC(=O)c1cc(=O)[nH]c(C2CC2)n1)c1ccc(OC(F)(F)F)c(F)c1 [Example 207] |
| – | 1 | – | 1.1 | COc1ccc(Cc2nc(C(=O)N[C@@H](c3ccc(SC(F)(F)F)cc3)C(C)(C)C)cc(=O)[nH]2)cc1F [Example 507, N-[(1R)-2,2-dimethyl-1-{4-[(trifluoromethyl)sulfanyl]phenyl}propyl]-2-(3-fluoro-4-methoxybenzyl)-6-oxo-1,6-dihydropyrimidine-4-carboxamide] |
| – | 1.5 | – | 1.4 | COc1ccc(Cc2nc(C(=O)N[C@@H](c3ccc(C(F)(F)F)cc3)C(C)C)cc(=O)[nH]2)cc1 [Example 474, 2-(4-methoxybenzyl)-N-{(1R)-2-methyl-1-[4-(trifluoromethyl)phenyl]propyl}-6-oxo-1,6-dihydropyrimidine-4-carboxamide] |
| – | 11 | – | 11 | Cc1nc(C(=O)N[C@@H](c2ccc(C(F)(F)F)cc2)C2(C)CC2)cc(=O)[nH]1 [Example 612, 2-methyl-N-{(R)-(1-methylcyclopropyl)[4-(trifluoromethyl)phenyl]methyl}-6-oxo-1,6-dihydropyrimidine-4-carboxamide] |
